Source: US4847295A, “Cycloalkyl-substituted 4-aminophenyl halo derivatives and process for their preparation” (Farmitalia Carlo Erba S.r.l., priority 1987, dated 1989)
pIC50: −log10 of the molar value.

Legend:
[1] = molecular target: T1, human placental aromatase (Homo sapiens, UniProt P11511); experiment: Inhibition of human placental aromatase in vitro (3H2O release from labelled androstenedione, microsomal fraction); format: biochemical; settings: for Relative potency: versus aminoglutethimide (1 by definition)
T1 construct: isolated from the microsomal fraction of human placental tissue; from tissue; host or cells: human placenta, microsomal fraction
T1 sequence (P11511 1-503): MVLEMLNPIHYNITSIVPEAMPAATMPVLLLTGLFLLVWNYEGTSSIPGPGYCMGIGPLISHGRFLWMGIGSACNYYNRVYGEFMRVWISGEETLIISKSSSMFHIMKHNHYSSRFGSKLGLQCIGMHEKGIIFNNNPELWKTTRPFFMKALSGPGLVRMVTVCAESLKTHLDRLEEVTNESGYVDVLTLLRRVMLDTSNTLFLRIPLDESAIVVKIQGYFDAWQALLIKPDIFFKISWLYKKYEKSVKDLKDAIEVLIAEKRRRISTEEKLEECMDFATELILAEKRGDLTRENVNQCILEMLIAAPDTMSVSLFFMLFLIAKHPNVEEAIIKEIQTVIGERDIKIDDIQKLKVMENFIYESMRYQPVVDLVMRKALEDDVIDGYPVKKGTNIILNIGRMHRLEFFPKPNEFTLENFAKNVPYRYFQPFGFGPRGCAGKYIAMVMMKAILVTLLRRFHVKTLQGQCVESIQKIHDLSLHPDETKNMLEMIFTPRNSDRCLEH
Procedure: The assay of the aromatase inhibition in vitro was carried out as follows: the enzyme system was isolated from the microsomal fraction of human placental tissue according to standard procedure.
All incubations were carried out in a shaking water bath at 37° C. in air in 10 mM potassium phosphate buffer, pH 7.5, which contained 100 mM Kcl, 1 mM EDTA and 1 mM dithiothreitol. The experiments were carried out in 1 ml incubation volume containing 50 nM 4-[^3 H]androstenedione, various concentrations of the inhibitors. 100 μm NADPH and 0.05 mg of microsomal proteins. After 15 minutes of incubation the reaction was stopped by the addition of chloroform (5 ml).
After centrifugation at 1500 xg for 5 minutes, aliquots (0.5 ml) were removed from the water phase for determination of ^3 H2 O formed.

aromatase = settings: reported in literature; cited from earlier work

Nc1ccc(C(C(=O)NC2CCCCC2)C(F)(F)F)cc1 (racemic) [FCE 25331, N-cyclohexyl-2-(4'-aminophenyl)-3,3,3-trifluoropropanamide]
pIC50 ([1]; human placental microsomes, 50 nM 4-[3H]androstenedione, 100 μm NADPH, pH 7.5, 37° C., 15 min): 6.48
Relative potency [1]: 6.4

Nc1ccc(C2CCCCC2)cc1 [4-cyclohexylaniline]
Relative potency [1]: 1.7
aromatase-inhibiting action (in words) (aromatase): more or less selective aromatase-inhibiting action

CCC1(c2ccncc2)CCC(=O)NC1=O (centres unmarked) [4-pyridyl-3-ethyl-2,6-piperidinedione]
aromatase-inhibiting action (in words) (aromatase): more or less selective aromatase-inhibiting action
